Measurements: patent US5871753A, “Regulated transcription of targeted genes and other biological events” (Board of Trustees of the Leland Stanford Junior University, priority 1995, dated 1999)

Assays:
[1] = tested on: myristoylated chimeric CD3.zeta./FKBP12 (MZF3E) receptor; test: NFAT-SX secreted alkaline phosphatase reporter activation through myristoylated chimeric CD3.zeta./FKBP12 (MZF3E) receptor; assay type: cell-based, human; settings: 1 ng/ml FK506, FK1012B-stimulated
Protocol: Activity of the Dimeric FK506 Derivative, FK1012B, on the Myristoylated Chimeric CD3.zeta./FKBP12 (MZF3E) Receptor
5 μg of the eukaryotic expression vector, pBJ5, containing a myristoylated chimeric receptor was co-transfected with 4 μg NFAT-SX. MZE, MZF1E, MZF2E and MZF3E contain 0, 1, 2, or 3 copies of FKBP12, respectively, downstream of a myristoylated CD3.zeta. cytoplasmic domain (see FIG. 2). As a control, 5 μg of pBJ5 was used in a parallel transfection. After 24 hours, aliquots of each transfection containing approximately 10^5 cells were incubated with log dilutions of the drug, FK1012B, as indicated. As a positive control and to control for transfection efficiency, ionomycln (1 μm) and PMA (25 ng/ml) were added to aliquots from each transfection. After an additional 12 hour incubation, the supernatants were assayed for alkaline phosphatase activity and these activities were expressed relative to that or the positive control samples. […] Compare FIGS. 7 and 8.
A myristoylation sequence from c-src was obtained from Pellman, et al., Nature 314, 374, and joined to a complementary sequence of CD3.zeta. to provide a primer which was complementary to a sequence 3' of the transmembrane domain, namely P#8908 (SEQ ID NO. 23). This primer has a SacII site adjacent to the 5' terminus and a XhoI sequence adjacent to the 3' terminus of the myristoylation sequence. […]

[2] = tested on: chimeric receptor TAC/TAC/ZETA (TTZ); test: Secreted alkaline phosphatase reporter (NFAT-SX and other IL-2 enhancer elements) activation via cross-linking of chimeric receptor TAC/TAC/ZETA in TAg Jurkat cells; assay type: cell-based, human; settings: 1 ng/ml FK506; TTZ-transfected TAg Jurkat cells
From the text: Induction of isolated IL-2 Enhancer-Binding Transcription Factors by cross-Linking the CD3.zeta. Chain of the T-Cell Receptor
The plasmid pSXNeo/IL2 (IL2-SX) (FIG. 1), placing the placental secreted alkaline phosphatase gene under the control of human IL-2 promoter (-325 to +47; MCB(86) 6, 3042), and variants (i.e. NFAT-SX, NFκB-SX, OAP/Oct1-SX, and AP-1-SX) under the control of the minimal IL-2 promoter (-325 to -294 and -72 to +47) plus synthetic oligomers, containing various promoter elements (i.e. NFAT, NKκKB, OAP/Oct-1, and AP1, respectively), were made by three piece ligations of 1) pPL/SEAP (Berger, et al., Gene (1988) 66,1) cut with SspI and HindIII; 2) pSV2/Neo (Southern and Berg, J. Mol. Appl. Genet. (1982) 1, 332) cut with NdeI, blunted with Klenow, then cut with PvuI; and 3) various promoter-containing plasmids (i.e. NFAT-CD8, κB-CD8, cx12lacZ-Oct-1, AP1-LUCIF3H, or cx15IL2) (described below) cut with PvuI and HindIII. NFAT-CD8 contains 3 copies of the NFAT-binding site (-286 to -257; Genes and Dev. (1990) 4, 1823) and cx12lacZ-Oct contains 4 copies of the OAP/Oct-1/(ARRE-1) binding site (MCB, (1988) 8, 1715) from the human IL-2 enhancer; κB-CD8 contains 3 copies of the NFκB binding site from the murine κ light chain (EMBO (1990) 9, 4425) and AP1-LUCIF3H contains 5 copies of the AP-1 site (5'-[…]-3') from the metallothionen promoter. […]

[3] = tested on: NF-AT-directed transcription; settings: Emmel et al. 1989; Flanagan et al. 1991; cited from earlier work
[4] = tested on: chimeric FKBP12/CD3.zeta. (1FK3) receptor; test: NFAT-inducible secreted alkaline phosphatase reporter activation through chimeric FKBP12/CD3.zeta. (1FK3) receptor; assay type: cell-based, human; settings: 2 ng/ml FK506; FK1012A-stimulated 1FK3 transfected cells
Protocol: Activity of the Dimeric FK506 Derivative, FK1012A, on the Chimeric FKBP12/CD3.zeta. (1FK3) Receptor
5 μg of the eukaryotic expression vector, pBJ5, (based on pCDL-SRαwith a polylinker inserted between the 16S splice site and the poly A site) containing the chimeric receptor (1FK3), was co-transfected with 4 μg of the NFAT-inducible secreted alkaline phosphatase reporter plasmid, NFAT-SX. As a control, 5 μg of pBJ5 was used, instead of 1FK3/pBJ5, in a parallel transfection. After 24 hours, aliquots of each transfection containing approximately 10^5 cells were incubated with log dilutions of the drug, FK1012A, as indicated. As a positive control and to control for transfection efficiency, ionomycin (1 μm) and PMA (25 ng/ml) were added to aliquots from each transfection. After an additional 14 hour incubation, the supernatants were assayed for alkaline phosphatase activity and these activities were expressed relative to that of the positive control samples.
To obtain the binding domain for FK506, plasmid rhFKBP (provided by S. Schreiber, Nature (1990) 346, 674) was used with P#6052 (SEQ ID NO. 33) and P#6053 (SEQ ID NO. 35) to obtain a 340 bp XhoI-SalI fragment containing human FKBP12. This fragment was inserted into pBluescript digested with XhoI and SalI to provide plasmid FK12/KS, which was the source for the FKBP12 binding domain. […]

Question: Which results are given for `C=CC[C@@H]1/C=C(\C)C[C@H](C)C[C@H](OC)[C@H]2O[C@@](O)(C(=O)C(=O)N3CCCC[C@H]3C(=O)O[C@H](/C(C)=C/[C@@H]3CC[C@@H](O)[C@H](OC)C3)[C@H](C)[C@@H](O)CC1=O)[C@H](C)C[C@@H]2OC` [FK506]?
Answer: stimulations after addition of FK506 [1]: dropped all stimulations to near background levels; activity due to NFAT after addition of FK506 [2]: dropped all activity due to NFAT to background levels; inhibition of NF-AT-directed transcription [3]: Inhibition of NF-AT-directed transcription; stimulations after addition of FK506 [4]: dropped all stimulations to background levels
